According to US20090111778A1, “2-Keto-Oxazoles as Modulators of Fatty Acid Amide Hydrolase” (priority 2005, published 2009):

Legend:
rat FAAH = biological target: T1, rat FAAH (Rattus norvegicus, UniProt P97612); experiment: Assay Method 2: FAAH assay, hydrolysis of 3H-anandamide by homogenate of SK-N-MC cells transfected with rat FAAH; assay type: biochemical; conditions: T84 or transfected SK-N-MC cell homogenate, 3H-AEA tracer 80 nM, rt 1 h, pH 9
T1 construct: expressed in transfected cells
T1 sequence (P97612 1-579): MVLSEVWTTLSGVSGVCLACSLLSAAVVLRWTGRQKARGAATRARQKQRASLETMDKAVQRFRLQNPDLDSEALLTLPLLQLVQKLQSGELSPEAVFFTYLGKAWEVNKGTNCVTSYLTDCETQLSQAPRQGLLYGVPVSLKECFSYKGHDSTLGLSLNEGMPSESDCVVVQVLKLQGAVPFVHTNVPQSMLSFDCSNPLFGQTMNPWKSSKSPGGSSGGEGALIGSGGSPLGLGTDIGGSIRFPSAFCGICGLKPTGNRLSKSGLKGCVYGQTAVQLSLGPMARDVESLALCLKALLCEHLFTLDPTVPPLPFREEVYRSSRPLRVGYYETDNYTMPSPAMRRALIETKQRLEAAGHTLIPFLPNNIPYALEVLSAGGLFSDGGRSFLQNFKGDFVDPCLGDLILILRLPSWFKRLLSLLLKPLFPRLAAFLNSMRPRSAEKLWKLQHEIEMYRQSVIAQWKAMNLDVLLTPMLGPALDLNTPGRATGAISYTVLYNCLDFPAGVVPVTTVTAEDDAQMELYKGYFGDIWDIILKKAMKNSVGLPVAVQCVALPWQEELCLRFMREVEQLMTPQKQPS
How it was run: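 SK-N-MC cells stably transfected with rat FAAH cDNA (electroporation, G418 selection); homogenate hydrolyses 3H-anandamide. Reaction 1 h at rt, then filtered through activated charcoal; unbound labelled ethanolamine in filtrate counted by scintillation.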

human FAAH = biological target: T2, human FAAH (Homo sapiens, UniProt O00519); experiment: Assay Method 1: FAAH assay, hydrolysis of 3H-anandamide by homogenate of SK-N-MC cells transfected with human FAAH; assay type: biochemical; conditions: human FAAH; T84 or transfected SK-N-MC cell homogenate; 3H-AEA tracer 80 nM; rt 1 h; pH 9; read-out: Assay 1 IC50
T2 construct: expressed in transfected cells
T2 sequence (O00519 1-579): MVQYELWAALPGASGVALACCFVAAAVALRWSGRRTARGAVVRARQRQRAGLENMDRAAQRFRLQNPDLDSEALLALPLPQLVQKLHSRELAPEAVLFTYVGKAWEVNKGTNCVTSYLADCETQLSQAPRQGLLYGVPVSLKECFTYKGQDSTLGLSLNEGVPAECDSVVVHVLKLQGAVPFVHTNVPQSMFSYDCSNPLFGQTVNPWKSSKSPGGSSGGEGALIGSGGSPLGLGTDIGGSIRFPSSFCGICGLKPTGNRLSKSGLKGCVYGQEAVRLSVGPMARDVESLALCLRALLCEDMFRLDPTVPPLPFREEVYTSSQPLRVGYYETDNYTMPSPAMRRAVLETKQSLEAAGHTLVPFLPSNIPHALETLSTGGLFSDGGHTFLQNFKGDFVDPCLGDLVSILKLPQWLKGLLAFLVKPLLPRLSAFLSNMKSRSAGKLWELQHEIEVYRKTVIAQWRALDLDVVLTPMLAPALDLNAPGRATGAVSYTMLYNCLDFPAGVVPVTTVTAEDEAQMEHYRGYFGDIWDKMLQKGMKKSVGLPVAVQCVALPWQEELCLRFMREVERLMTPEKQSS
How it was run: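 Homogenate of SK-N-MC cells stably expressing human FAAH (G418-selected clones) incubated with compound and 80 nM [1-3H-ethanolamine]anandamide for 1 h at rt. Released 3H-ethanolamine separated from substrate by activated-charcoal filtration, then counted by scintillation.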

Compound	IC50 (rat FAAH)	IC50 (human FAAH)
CC(C)Oc1cccc(CN2CCC(CCCC(=O)c3ncco3)CC2)c1 [Example 135, 4-[1-(3-Isopropoxy-benzyl)-piperidin-4-yl]-1-oxazol-2-yl-butan-1-one]	9 nM	5 nM
Cc1ccc(Oc2ccc(CN3CCC(CCCC(=O)c4ncco4)CC3)cn2)cc1 [Example 96, 1-Oxazol-2-yl-4-[1-(6-p-tolyloxy-pyridin-3-ylmethyl)-piperidin-4-yl]-butan-1-one]	132 nM	125 nM
CC(C)Cc1ccc(CN2CCC(CCCC(=O)c3ncco3)CC2)cc1 [Example 82, 4-[1-(4-Isobutyl-benzyl)-piperidin-4-yl]-1-oxazol-2-yl-butan-1-one]	49 nM	23 nM
Cc1cccc(CC(=O)N2CCC(CCCC(=O)c3ncco3)CC2)c1 [Example 39, 1-Oxazol-2-yl-4-[1-(2-m-tolyl-acetyl)-piperidin-4-yl]-butan-1-one]	463 nM	834 nM
O=C(CCCC1CCN(Cc2cccc(Br)c2)CC1)c1ncco1 [Example 90, 4-[1-(3-Bromo-benzyl)-piperidin-4-yl]-1-oxazol-2-yl-butan-1-one]	118 nM	10 nM
O=C(CCCC1CCN(C(=O)CCc2ccccc2)CC1)c1ncco1 [Example 36, 1-Oxazol-2-yl-4-[1-(3-phenyl-propionyl)-piperidin-4-yl]-butan-1-one]	56 nM	46 nM
O=C(CCCC1CCN(Cc2cccnc2)CC1)c1ncco1 [Example 5, 1-Oxazol-2-yl-4-(1-pyridin-3-ylmethyl-piperidin-4-yl)-butan-1-one]	3000 nM	1200 nM
O=C(CCCC1CCN(Cc2cc3ccccc3nc2Cl)CC1)c1ncco1 [Example 97, 4-[1-(2-Chloro-quinolin-3-ylmethyl)-piperidin-4-yl]-1-oxazol-2-yl-butan-1-one]	23 nM	12 nM
O=C(CCCC1CCN(Cc2ccc3ccccc3n2)CC1)c1ncco1 [Example 92, 1-Oxazol-2-yl-4-(1-quinolin-2-ylmethyl-piperidin-4-yl)-butan-1-one]	290 nM	60 nM
O=C(CCCC1CCN(C(=O)CCc2cccnc2)CC1)c1ncco1 [Example 47, 1-Oxazol-2-yl-4-[1-(3-pyridin-3-yl-propionyl)-piperidin-4-yl]-butan-1-one]	700 nM	400 nM
Cc1ccccc1CN1CCC(CCCC(=O)c2ncco2)CC1 [Example 80, 4-[1-(2-Methyl-benzyl)-piperidin-4-yl]-1-oxazol-2-yl-butan-1-one]	2000 nM	1200 nM
O=C(CCCC1CCN(Cc2cncc(Br)c2)CC1)c1ncco1 [Example 78, 4-[1-(5-Bromo-pyridin-3-ylmethyl)-piperidin-4-yl]-1-oxazol-2-yl-butan-1-one]	500 nM	98 nM
CC(C)(C)OC(=O)N1CCC(CCCC(=O)c2ncco2)CC1 [Example 1, 4-(4-Oxazol-2-yl-4-oxo-butyl)-piperidine-1-carboxylic acid tert-butyl ester]	27 nM	1.8 nM
O=C(CCCC1CCN(Cc2ccc3c(c2)OCO3)CC1)c1ncco1 [Example 14, 4-(1-Benzo[1,3]dioxol-5-ylmethyl-Piperidin-4-yl)-1-oxazol-2-yl-butan-1-one]	1000 nM	86 nM

The remaining lines, values ahead:

IC50 (rat FAAH)	IC50 (human FAAH)	Compound
57 nM	8 nM	CCCCCCCCCN1CCC(CCCC(=O)c2ncco2)CC1 [Example 127, 4-(1-Nonyl-Piperidin-4-yl)-1-oxazol-2-yl-butan-1-one]
935 nM	354 nM	O=C(CCCC1CCN(Cc2ccco2)CC1)c1ncco1 [Example 118, 4-(1-Furan-2-ylmethyl-piperidin-4-yl)-1-oxazol-2-yl-butan-1-one]
760 nM	88 nM	O=C(CCCC1CCN(Cc2cc(F)c(F)c(F)c2)CC1)c1ncco1 [Example 131, 1-Oxazol-2-yl-4-[1-(3,4,5-trifluoro-benzyl)-piperidin-4-yl]-butan-1-one]
277 nM	175 nM	O=C(CCCC1CCN(Cc2cnc3ccccc3n2)CC1)c1ncco1 [Example 117, 1-Oxazol-2-yl-4-(1-quinoxalin-2-ylmethyl-piperidin-4-yl)-butan-1-one]
44 nM	23 nM	O=C(CCCC1CCN(Cc2ccc(C3CCCCC3)cc2)CC1)c1ncco1 [Example 101, 4-[1-(4-Cyclohexyl-benzyl)-piperidin-4-yl]-1-oxazol-2-yl-butan-1-one]
11 nM	30 nM	COc1ccc2nc(Cl)c(CN3CCC(CCCC(=O)c4ncco4)CC3)cc2c1 [Example 100, 4-[1-(2-Chloro-6-methoxy-quinolin-3-ylmethyl)-piperidin-4-yl]-1-oxazol-2-yl-butan-1-one]
8 nM	18 nM	COC(=O)c1cccc(-c2cnc(C(=O)CCCC3CCN(Cc4ccc(C(C)C)cc4)CC3)o2)n1 [Example 147, 6-(2-[4-{1-(4-Isopropyl-benzyl)-piperidin-4-yl]-butyryl}-oxazol-5-yl)-pyridine-2-carboxylic acid methyl ester]
235 nM	23 nM	O=C(CCCC1CCN(Cc2ccc(N3CCCCC3)nc2)CC1)c1ncco1 [Example 108, 1-oxazol-2-yl-4-[1-(3,4,5,6-tetrahydro-2H-[1,2′]bipyridinyl-5′-ylmethyl)-piperidin-4-yl]-butan-1-one]
2000 nM	460 nM	O=C(CCCC1CCN(Cc2ccc(Cl)c(C(F)(F)F)c2)CC1)c1ncco1 [Example 133, 4-[1-(4-Chloro-3-trifluoromethyl-benzyl)-piperidin-4-yl]-1-oxazol-2-yl-butan-1-one]
